{
  "source": "patent US11225642B2",
  "about": "“Method for producing renal progenitor cells” (KYOTO UNIVERSITY, priority 2013, dated 2022)",
  "tested_on": "OSR1-GFP & SIX2-tdTomato reporter human iPS cell line (4A6C3-10)",
  "assay": "SIX2-positive cell induction method 4, OSR1+SIX2+ cell rate by flow cytometer",
  "format": "cell-based",
  "procedure": "4A6C3-10 was cultured at 37° C. in a 2% to 5% CO2 atmosphere to become 70% to 80% confluent on 10-cm dishes containing a primate ES medium (ReproCELL) supplemented with 500 U/ml penicillin/streptomycin (Invitrogen) and 5 ng/ml recombinant human basic fibroblast growth factor (bFGF, Wako) with the use of ICR-mouse-embryo (fetus 12.5 days old)-derived mouse embryonic fibroblasts (MEF) or SNL feeder cells (McMahon, A. P. and Bradley, A. (1990) Cell 62; 1073-1085) (these cells being previously treated with 15.5 μg/ml mitomycin (Kyowa Hakko Kirin Co., Ltd.) for 2 to 3 hours and seeded at a density of 2×10^5 cells/6-cm dish) as feeder cells. The 10-cm plates containing the cells were rinsed with PBS and treated with a CTK solution (PBS containing 0.25% Trypsin (Invitrogen), 0.1% Collagenase IV (Invitrogen), 20% KnockOut SR (KSR, Invitrogen), and 1 mM CaCl2) at 37° C. for 4 minutes. The CTK solution was removed by rinsing with PBS. Then, the medium was exchanged with DMEM/F12+Glutamax (Invitrogen) containing 0.1 mM MEM NEAA (Invitrogen), 1000 U/ml penicillin/streptomycin, 0.55 mM 2-mercaptoethanol (Invitrogen), and 20% KSR. Subsequently, the cells were scraped using a cell scraper and seeded on 6-cm plates coated with 0.2% gelatin to remove feeder cells. One hour later, the cells were washed with DMEM/F12+Glutamax [stage-1 medium] containing 500 U/ml penicillin/streptomycin and 2% FBS (HyClone), transferred to ultra-low attachment dishes (Corning 3471) having a stage-1 medium containing 100 ng/ml recombinant human/mouse/rat Activin A (R&D Systems) and 1 μM CHIR99021, and cultured at 37° C. in a 5% CO2 atmosphere for 2 days.\nIn order to differentiate into the intermediate mesoderm, the cell mass (embryoid body (EB)) obtained at stage 1 was transferred to a 24-well plate coated with Synthemax II (Corning), the medium was exchanged with DMEM/F12+Glutamax containing 0.1 mM MEM NEAA, 500 U/ml penicillin/streptomycin, 0.55 mM 2-mercaptoethanol, 10% KSR, 100 ng/ml BMP7 (recombinant human BMP7, R&D Systems), and 1 μM CHIR99021, and the cells were cultured at 37° C. in a 5% CO2 atmosphere for 3 days.\nAfter stage 2, the medium was exchanged with DMEM/F12+Glutamax containing 0.1 mM MEM NEAA, 500 U/ml penicillin/streptomycin, 0.55 mM 2-mercaptoethanol, 10% KSR, 1 μM TTNPB (Sigma T3757), and 5 ng/ml TGFβ1 (Peprotech), followed by culturing at 37° C. in a 5% CO2 atmosphere for 5 days. The medium was exchanged with a medium having the same conditions two days after the start of culture (i.e., day 8 from the start of stage 1 (day 1)).\nAfter stage 3, the medium was exchanged with DMEM/F12+Glutamax containing 0.1 mM MEM NEAA, 500 U/ml penicillin/streptomycin, 0.55 mM 2-mercaptoethanol, 10% KSR, 5 ng/ml TGFβ1, and 0.5 μM DMH1 (Tocris), followed by culturing at 37° C. in a 5% CO2 atmosphere for 17 days (i.e., culturing for 28 days in total from the start of stage 1 (day 1); FIG. 3A). In this case, the medium was exchanged every 3 days with a medium having the same conditions. […] In addition, the OSR1^+SIX2^+ cell rate reached the maximum level on day 25 of culture and then it was confirmed to be maintained until day 28 of culture (FIG. 3D).\nInduction of OSR1^+SIX2^+ cells from the 4A6C3-10 iPS cell line was examined using different combinations of TGFβ signaling activators and BMP inhibitors. Specifically, induction of OSR1^+SIX2^+ cells from 4A6C3-10 was examined under conditions 1) to 10) described below. […]",
  "data": [
    {"substance": "TGFβ1: TGFβ signaling activator protein (Peprotech)", "values": [
      {"measurement": "induction of OSR1+SIX2+ cells", "setting": "Example 8, comparison of combinations of TGFβ signaling activators and BMP inhibitors at stage 4 (FIG. 4)", "value": "effective"},
      {"measurement": "OSR1-positive and SIX2-positive (OSR1+SIX2+) cell rate", "setting": "induction method 4, stage 4 medium with 5 ng/ml TGFβ1 and 0.5 μM DMH1, day 28 of culture", "value": 32.8, "unit": "%"}
    ]}
  ]
}
